Key:
[1] = Apparent permeability from apical to basolateral side in human Caco-2 cells; assay type: ADME, cell-based; conditions: read-out: permeability
[2] = Apparent permeability across PAMPA membrane; assay type: ADME; conditions: read-out: permeability
[3] = Stability in hank's balanced salt solution at 15 uM after 20 mins; assay type: physicochemical; conditions: read-out: Stability
[4] = Apparent permeability from apical to basolateral side in human Caco-2 cells assessed as drug recovery; assay type: ADME, cell-based; conditions: read-out: Activity
[5] = Stability in hank's balanced salt solution at 15 uM after 120 mins; assay type: physicochemical; conditions: read-out: Stability
[6] = Apparent permeability across PAMPA membrane assessed as drug recovery; assay type: ADME; conditions: read-out: Activity
[7] = Ratio of permeability from basolateral to apical side over apical to basolateral side in human Caco-2 cells; assay type: ADME, cell-based
[8] = Stability in hank's balanced salt solution at 15 uM after 60 mins; assay type: physicochemical; conditions: read-out: Stability
[9] = Stability in hank's balanced salt solution at 15 uM after 24 hrs; assay type: physicochemical; conditions: read-out: Stability
[10] = Apparent permeability from basolateral to apical side in human Caco-2 cells; assay type: ADME, cell-based; conditions: read-out: permeability
[11] = Stability in hank's balanced salt solution at 15 uM after 180 mins; assay type: physicochemical; conditions: read-out: Stability
[12] = Apparent permeability from basolateral to apical side in human Caco-2 cells assessed as drug recovery; assay type: ADME, cell-based; conditions: read-out: Activity

| Structure (SMILES) | Papp A→B [1] | Papp [2] | remaining at 20 min, 15 µM [3] | recovery [4] | remaining at 2 h, 15 µM [5] | recovery [6] | efflux ratio [7] | remaining at 1 h, 15 µM [8] | remaining at 24 h, 15 µM [9] | Papp B→A [10] | remaining at 3 h, 15 µM [11] | recovery [12] |
| --- | --- | --- | --- | --- | --- | --- | --- | --- | --- | --- | --- | --- |
| COc1ccc([C@@H]2CC(=O)c3c(O)cc(O[C@@H]4O[C@H](CO[C@@H]5O[C@@H](C)[C@H](O)[C@@H](O)[C@H]5O)[C@@H](O)[C@H](O)[C@H]4O)cc3O2)cc1O [HESPERIDIN] |  |  | 99.8% | 76.9% | 87.9% |  |  |  | 84.9% |  | 86.3% | 80.2% |
| O=C1C[C@@H](c2ccc(O)cc2)Oc2cc(O)cc(O)c21 [NARINGENIN] | 37.8 ×10⁻⁶ cm/s | 25.7 ×10⁻⁶ cm/s |  | 54.4% | 100% | 87% |  | 99.4% | 79.9% | 51.4 ×10⁻⁶ cm/s | 91.2% | 93% |
| C[C@@H]1O[C@@H](O[C@H]2[C@H](Oc3cc(O)c4c(c3)O[C@H](c3ccc(O)cc3)CC4=O)O[C@H](CO)[C@@H](O)[C@@H]2O)[C@H](O)[C@H](O)[C@H]1O [NARINGIN] |  |  | 98.3% | 85.7% | 92.2% |  |  |  | 88.5% |  | 90.4% | 88.4% |

More lines, now with the values ahead:

| Papp A→B [1] | Papp [2] | remaining at 20 min, 15 µM [3] | recovery [4] | remaining at 2 h, 15 µM [5] | recovery [6] | efflux ratio [7] | remaining at 1 h, 15 µM [8] | remaining at 24 h, 15 µM [9] | Papp B→A [10] | remaining at 3 h, 15 µM [11] | recovery [12] | Structure (SMILES) |
| --- | --- | --- | --- | --- | --- | --- | --- | --- | --- | --- | --- | --- |
| 76.2 ×10⁻⁶ cm/s | 76.1 ×10⁻⁶ cm/s | 100% | 59.1% | 101% | 82% | 0.2 | 96.5% | 50.9% | 12.4 ×10⁻⁶ cm/s | 98.4% | 66.8% | COc1ccc(-c2cc(=O)c3c(O)cc(O)cc3o2)cc1O [DIOSMETIN] |
|  |  | 103% | 61.9% | 88.6% |  |  |  | 0% |  | 78.4% | 68.9% | COc1ccc(-c2cc(=O)c3c(O)cc(O[C@@H]4O[C@H](CO[C@@H]5O[C@@H](C)[C@H](O)[C@@H](O)[C@H]5O)[C@@H](O)[C@H](O)[C@H]4O)cc3o2)cc1O [DIOSMIN] |
| 47.1 ×10⁻⁶ cm/s | 35.7 ×10⁻⁶ cm/s | 94.5% | 34.1% | 91.1% | 84% | 0.6 | 99.9% | 80% | 27 ×10⁻⁶ cm/s | 90.8% | 70.1% | COc1ccc([C@@H]2CC(=O)c3c(O)cc(O)cc3O2)cc1O [HESPERETIN] |

Source: ChEMBL document CHEMBL1157141, “Prediction of intestinal absorption and metabolism of pharmacologically active flavones and flavanones” (Bioorg Med Chem, 2008)
